Test results reported in patent US20230055961A1, “PENTAFLUOROBENZENESULFONAMIDE DERIVATIVES AND USES THEREOF” (Dunad Therapeutics Ltd., priority 2019, published 2023).
Like-named read-outs stand apart in the source and are kept apart here. Blank lines part the entries; values can stand above or below the compound they belong to.

Experiments:
BTK [1] = target: T1, BTK (Homo sapiens, UniProt Q06187); assay: BTK washout experiment (residual activity after 400-fold dilution); assay type: biochemical; conditions: 6-h incubation of 50 nM BTK with 177 nM compound, relative to DMSO alone
T1 sequence (Q06187 whole entry, species assumed): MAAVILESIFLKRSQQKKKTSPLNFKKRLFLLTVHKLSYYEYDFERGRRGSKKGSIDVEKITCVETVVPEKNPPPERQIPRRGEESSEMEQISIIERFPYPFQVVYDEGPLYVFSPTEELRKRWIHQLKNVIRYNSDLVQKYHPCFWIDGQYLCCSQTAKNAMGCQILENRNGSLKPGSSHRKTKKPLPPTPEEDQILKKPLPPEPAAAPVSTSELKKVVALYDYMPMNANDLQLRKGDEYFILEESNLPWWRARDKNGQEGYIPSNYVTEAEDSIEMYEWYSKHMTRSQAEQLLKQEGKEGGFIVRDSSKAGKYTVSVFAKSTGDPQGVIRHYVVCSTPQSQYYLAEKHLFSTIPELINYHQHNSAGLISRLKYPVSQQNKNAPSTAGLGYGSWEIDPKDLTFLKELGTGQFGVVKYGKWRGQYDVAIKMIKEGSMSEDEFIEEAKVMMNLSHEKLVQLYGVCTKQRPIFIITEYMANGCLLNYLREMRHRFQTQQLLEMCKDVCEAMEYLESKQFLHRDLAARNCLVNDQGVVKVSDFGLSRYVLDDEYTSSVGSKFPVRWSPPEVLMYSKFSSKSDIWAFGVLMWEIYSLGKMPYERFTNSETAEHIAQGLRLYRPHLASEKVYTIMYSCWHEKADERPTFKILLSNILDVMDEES
Protocol: After a 3-h incubation of 40 nM BTK in the presence of 296 nM of compound Compound 5-1, a 400-fold dilution was performed to remove excess inhibitor.
By way of contrast, a “washout” experiment performed with ARQ-531 gives a very different result, because this compound lacks a warhead and is known to inhibit BTK reversibly. After a 6-h incubation of 50 nM BTK in the presence of 177 nM of ARQ-531, a 400-fold dilution was performed to remove excess inhibitor. […] This indicates to one of ordinary skill in the art that the enzyme was not inhibited irreversibly during the incubation with ARQ-531.

MOLM-13 = assay: In vitro IC50 against human cancer cells (Table 11), MOLM-13; assay type: cell-based; conditions: read-out: Human cancer cell lines (IC50, μM) MOLM-13
MV-4-11 = assay: In vitro IC50 against human cancer cells (Table 11), MV-4-11; assay type: cell-based; conditions: MV4-11, read-out: Human cancer cell lines (IC50, μM) MV-4-11
K562 = assay: In vitro IC50 against human cancer cells (Table 11), K562; assay type: cell-based; conditions: read-out: Human cancer cell lines (IC50, μM) K562
tubulin = assay: In vitro % inhibition of tubulin polymerization (Table 12; absorbance at 340 nm, Vmax); assay type: biochemical
Protocol: A 96-well half-area clear flat-bottom microplate (Corning© #3697) is pre-heated in a plate reader (Cytation 3, BioTek) at 37° C. for 15 minutes prior to the start of each assay. Kinase buffer (80 mM PIPES pH 6.9, 2 mM MgCl2, 0.5 mM EGTA, 15% glycerol, 1 mM GTP) is prepared from stock solutions and placed on ice. Inhibitors of this application are prepared to 10 μM concentrations in buffer (80 mM PIPES pH 6.9, 2 mM MgCl2, 0.5 mM EGTA, 5% DMSO) from DMSO stock solutions. After the assay plate is pre-warmed, 10 μL of inhibitor or buffer control is added to selected wells. Every assay contained a kinase only negative control for normalization of data, and a known compound positive control. The assay plate is incubated at 37° C. for 3 minutes. During this time, a frozen aliquot of the kinase (10 mg/mL) in buffer (80 mM PIPES pH 6.9, 2 mM MgCl2, 0.5 mM EGTA) is defrosted by placing in a room temperature water bath. Once thawed, 200 μL of the kinase is mixed with 420 μL of the ice-cold kinase buffer (3 mg/mL kinase in 80 mM PIPES, pH 6.9, 2 mM MgCl2, 0.5 mM EGTA, 1 mM GTP, 10.2% glycerol). To a 96-well plate on ice, aliquots of 100 μL kinase is added to each well. From this plate, 90 μL of the kinase is immediately pipetted into all sample wells of the warmed assay plate using a multi-channel pipette. The assay plate is immediately put in the reader at 37° C. and shook for 5 s with orbital shaking at medium speed. The reader records the absorbance at 340 nm every 15 s for 30 min.
The resulting absorbance curves are normalized by subtracting each data point by the absorbance at time 0.

BTK [2] = target: T1, BTK; assay: In vitro BTK inhibition, biochemical IC50 (no preincubation)
Protocol: IC50 Values (nM) for the Inhibition of BTK Activity
(§1) In vitro BTK and JAK3 inhibition studies are shown in Table 7 and Table 8 (no preincubation).

FGFR1 = FGFR1 (Homo sapiens, UniProt P11362); assay: In vitro kinase inhibition studies (Table 9), FGFR1; assay type: biochemical
FGFR1, sequence (P11362 22-822, species assumed): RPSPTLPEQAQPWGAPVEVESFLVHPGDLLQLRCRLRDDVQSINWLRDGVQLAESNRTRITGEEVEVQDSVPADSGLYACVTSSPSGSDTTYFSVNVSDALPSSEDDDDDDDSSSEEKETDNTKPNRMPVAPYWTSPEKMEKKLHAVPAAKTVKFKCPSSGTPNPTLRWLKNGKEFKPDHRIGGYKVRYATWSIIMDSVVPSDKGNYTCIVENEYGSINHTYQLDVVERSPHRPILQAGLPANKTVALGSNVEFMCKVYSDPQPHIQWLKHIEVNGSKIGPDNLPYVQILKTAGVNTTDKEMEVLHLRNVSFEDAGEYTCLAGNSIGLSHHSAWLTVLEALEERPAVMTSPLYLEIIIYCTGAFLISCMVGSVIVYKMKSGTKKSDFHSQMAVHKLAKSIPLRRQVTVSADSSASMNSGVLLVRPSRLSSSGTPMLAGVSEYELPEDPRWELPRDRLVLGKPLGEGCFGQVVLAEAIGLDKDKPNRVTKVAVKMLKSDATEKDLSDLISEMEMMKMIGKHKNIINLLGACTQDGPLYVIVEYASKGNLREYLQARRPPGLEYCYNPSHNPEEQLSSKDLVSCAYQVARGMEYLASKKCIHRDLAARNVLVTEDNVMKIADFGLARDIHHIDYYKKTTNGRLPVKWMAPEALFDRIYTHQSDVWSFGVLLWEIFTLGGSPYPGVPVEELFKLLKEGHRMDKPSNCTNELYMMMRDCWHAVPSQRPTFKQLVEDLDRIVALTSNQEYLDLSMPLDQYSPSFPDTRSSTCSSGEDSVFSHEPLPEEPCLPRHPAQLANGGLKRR

BTK [3] = target: T1, BTK; assay: Total BTK degradation assay (Total BTK-HTRF) in RAMOS cells; assay type: cell-based
Protocol: A Total BTK-HTRF assay (Cisbio Total BTK cat #63ADK064PEG) was performed to quantitate the ability of test compounds to degrade BTK protein levels in RAMOS cells. This total protein assay monitors the steady state protein level in a sandwich assay format using two different specific antibodies after lysis of the cell-membrane. The antibodies recognise two different epitopes on BTK and are labelled with Eu3^+-cryptate (donor) and d2 (acceptor). […] The specific signal modulates positively in proportion to the total concentration of BTK.
In order to evaluate the degradation of BTK by test compounds, a total BTK degradation assay was performed (Cisbio Total BTK cat #63ADK064PEG). The frozen stock solutions of the two different BTK antibodies were diluted 20-fold with the detection buffer and pre-mixed before use in the assay. Supplemented lysis buffer (4×) was prepared by diluting the blocking reagent solution 25-fold with lysis buffer (4×) and mixing gently.
were plated at a density of 50K cells/well (8 uL) in RPMI medium with 10% FBS into 384-well white detection plates. […] The plate was read on an Biotek Synergy Neo2 plate reader using 330 nm excitation, 620 nm-donor emission and 670 nm-acceptor emission.

FGFR4 = FGFR4 (Homo sapiens, UniProt P22455); assay: In vitro kinase inhibition studies (Table 9), FGFR4; assay type: biochemical
FGFR4, sequence (P22455 22-802, species assumed): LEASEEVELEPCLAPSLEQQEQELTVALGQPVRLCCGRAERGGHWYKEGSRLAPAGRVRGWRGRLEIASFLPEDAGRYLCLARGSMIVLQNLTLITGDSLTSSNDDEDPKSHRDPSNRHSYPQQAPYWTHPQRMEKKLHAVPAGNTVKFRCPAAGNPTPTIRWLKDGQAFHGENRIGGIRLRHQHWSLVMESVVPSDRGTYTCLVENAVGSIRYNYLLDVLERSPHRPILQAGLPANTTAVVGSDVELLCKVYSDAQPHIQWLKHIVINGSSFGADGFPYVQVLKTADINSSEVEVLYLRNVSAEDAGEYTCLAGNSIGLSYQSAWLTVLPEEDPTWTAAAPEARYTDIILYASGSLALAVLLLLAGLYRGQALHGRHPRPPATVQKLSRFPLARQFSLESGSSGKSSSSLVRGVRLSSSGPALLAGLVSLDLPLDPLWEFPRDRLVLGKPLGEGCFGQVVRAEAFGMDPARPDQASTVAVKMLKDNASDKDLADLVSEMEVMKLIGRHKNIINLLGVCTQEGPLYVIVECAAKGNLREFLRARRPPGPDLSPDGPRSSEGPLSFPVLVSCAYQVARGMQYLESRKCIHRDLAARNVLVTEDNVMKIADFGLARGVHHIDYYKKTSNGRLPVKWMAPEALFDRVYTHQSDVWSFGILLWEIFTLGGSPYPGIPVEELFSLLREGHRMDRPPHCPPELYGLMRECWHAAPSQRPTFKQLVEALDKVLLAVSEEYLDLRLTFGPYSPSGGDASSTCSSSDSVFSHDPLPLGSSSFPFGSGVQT

JAK3 = target: T2, JAK3 (Homo sapiens, UniProt P52333); assay: In vitro JAK3 inhibition, biochemical IC50 (no preincubation); conditions: Table 8
T2 sequence (P52333 1-1124): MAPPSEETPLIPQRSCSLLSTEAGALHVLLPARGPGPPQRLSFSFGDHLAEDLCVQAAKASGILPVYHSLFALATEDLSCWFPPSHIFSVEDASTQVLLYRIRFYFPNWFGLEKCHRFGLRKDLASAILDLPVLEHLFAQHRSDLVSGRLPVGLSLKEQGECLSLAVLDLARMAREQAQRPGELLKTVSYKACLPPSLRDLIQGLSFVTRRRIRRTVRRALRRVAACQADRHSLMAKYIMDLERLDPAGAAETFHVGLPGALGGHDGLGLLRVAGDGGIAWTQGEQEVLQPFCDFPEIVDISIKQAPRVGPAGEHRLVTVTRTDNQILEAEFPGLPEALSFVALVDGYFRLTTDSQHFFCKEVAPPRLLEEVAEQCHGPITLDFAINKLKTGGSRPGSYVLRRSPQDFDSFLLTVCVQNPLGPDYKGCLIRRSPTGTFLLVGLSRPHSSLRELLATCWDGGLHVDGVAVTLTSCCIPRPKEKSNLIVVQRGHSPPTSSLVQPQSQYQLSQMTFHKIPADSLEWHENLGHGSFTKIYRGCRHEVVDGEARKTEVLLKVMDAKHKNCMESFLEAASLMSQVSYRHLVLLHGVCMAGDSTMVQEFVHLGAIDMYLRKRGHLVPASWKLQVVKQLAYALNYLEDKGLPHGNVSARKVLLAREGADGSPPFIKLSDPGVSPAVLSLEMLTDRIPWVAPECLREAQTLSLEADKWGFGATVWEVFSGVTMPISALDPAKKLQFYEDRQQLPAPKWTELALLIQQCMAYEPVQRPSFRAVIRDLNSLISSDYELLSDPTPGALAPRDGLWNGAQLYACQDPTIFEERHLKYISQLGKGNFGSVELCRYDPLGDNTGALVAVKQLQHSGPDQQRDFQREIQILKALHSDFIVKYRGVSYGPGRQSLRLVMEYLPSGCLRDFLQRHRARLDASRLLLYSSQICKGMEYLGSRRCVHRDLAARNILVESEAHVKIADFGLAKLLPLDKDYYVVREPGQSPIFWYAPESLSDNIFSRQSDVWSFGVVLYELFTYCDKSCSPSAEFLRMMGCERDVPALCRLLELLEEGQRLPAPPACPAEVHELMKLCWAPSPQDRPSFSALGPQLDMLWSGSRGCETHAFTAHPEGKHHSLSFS
Protocol: as §1

RL cells = assay: IC50 of Ibrutinib analogs against human cancer cells, RL cells (Table 14); assay type: cell-based; conditions: Homo sapiens, RL
Protocol: 1×10^4 cells (NHF cells)/well are plated in 96-well assay plates in culture medium. […] After 24 hrs, test compounds and vehicle controls are added to appropriate wells so the final volume is 100p in each well. The cells are cultured for the desired test exposure period (72 hrs) at 37° C. and 5% CO2. The assay plates are removed from 37° C. incubator and 20 μl/well of CellTiter-Blue® Reagent is added. The plates are incubated using standard cell culture conditions for 1-4 hours and the plates are shaken for 10 seconds and record fluorescence at 560/590 nm. […] Therapeutic index=(IC50 human fibroblasts/IC50 […] )

[4] = test system: normal pooled human fibroblasts; assay: IC50 of Ibrutinib analogs against normal human cells, pooled human fibroblasts (Table 14); assay type: cell-based; conditions: Fibroblast, TABLE 9
Protocol: Anti-cancer efficacy of exemplary compounds of this application is assessed in vitro in different cancer cell lines. Cell viability is examined following treatment at various concentration of inhibitor (0.097656-50 μM) using a cell Titer-Blue cell viability assay. 1×10^4 cells (NHF cells)/well are plated in 96-well assay plates in culture medium. All cells are grown in DMEM, IMDM and RPMI-1640 supplemented with 10% FBS. After 24 hrs, test compounds and vehicle controls are added to appropriate wells so the final volume is […] in each well. The cells are cultured for the desired test exposure period (72 hrs) at 37° C. and 5% CO2. The assay plates are removed from 37° C. incubator and 20 μl/well of CellTiter-Blue® Reagent is added. The plates are incubated using standard cell culture conditions for 1-4 hours and the plates are shaken for 10 seconds and record fluorescence at 560/590 nm.
Therapeutic index=(IC50 human fibroblasts/IC50 RLcells)

Structure (SMILES): COc1ccc(NS(=O)(=O)c2c(F)c(F)c(F)c(F)c2F)cc1F [Batabulin]
- IC50 (MOLM-13): ≤ 0.1 µM
- IC50 (MV-4-11): ≤ 0.1 µM
- IC50 (K562): ≤ 0.1 µM
- % inhibition of tubulin polymerization (tubulin): C (C > 20%)

Structure (SMILES): O=S(=O)(Nc1ccc(OC(F)(F)F)c(F)c1)c1c(F)c(F)c(F)c(F)c1F [Compound 4-1, 2,3,4,5,6-pentafluoro-N-(3-fluoro-4-(trifluoromethoxy)phenyl)benzenesulfonamide]
- IC50 (MOLM-13): 10 to 100 µM
- IC50 (MV-4-11): 10 to 100 µM
- IC50 (K562): 10 to 100 µM
- % inhibition of tubulin polymerization (tubulin): B (B: 10-20%)

Structure (SMILES): O=S(=O)(Nc1ccc(O)c(F)c1)c1c(F)c(F)c(F)c(F)c1F [Compound 4-3, 2,3,4,5,6-pentafluoro-N-(3-fluoro-4-hydroxyphenyl)benzenesulfonamide]
- IC50 (MV-4-11): 0.1 to 10 µM
- % inhibition of tubulin polymerization (tubulin): A (A: < 10%)

Structure (SMILES): O=S(=O)(Nc1ccc(OC(F)F)c(F)c1)c1c(F)c(F)c(F)c(F)c1F [Compound 4-4, N-(4-(difluoromethoxy)-3-fluorophenyl)-2,3,4,5,6-pentafluorobenzenesulfonamide]
- IC50 (MOLM-13): 0.1 to 10 µM
- IC50 (MV-4-11): 0.1 to 10 µM
- % inhibition of tubulin polymerization (tubulin): B (B: 10-20%)

Structure (SMILES): O=S(=O)(Nc1ccc(OCF)c(F)c1)c1c(F)c(F)c(F)c(F)c1F [Compound 4-6, 2,3,4,5,6-pentafluoro-N-(3-fluoro-4-(fluoromethoxy)phenyl)benzenesulfonamide]
- IC50 (MOLM-13): 0.1 to 10 µM
- IC50 (MV-4-11): 0.1 to 10 µM
- IC50 (K562): 0.1 to 10 µM
- % inhibition of tubulin polymerization (tubulin): B (B: 10-20%)

Structure (SMILES): COc1ccc(N(C)S(=O)(=O)c2c(F)c(F)c(F)c(F)c2F)cc1F [Compound 4-12, 2,3,4,5,6-pentafluoro-N-(3-fluoro-4-methoxyphenyl)-N-methylbenzenesulfonamide]
- IC50 (K562): 0.1 to 10 µM

Structure (SMILES): C=CC(=O)N1CCC[C@@H](n2nc(-c3ccc(Oc4ccccc4)cc3)c3c(N)ncnc32)C1 [Ibrutinib, reference compound]
- IC50 (RL cells; RL cells, read-out: IC50 in RL cells): 10.3 µM
- IC50 (RL cells; TABLE 9, read-out: RL (IC50)): 10.3 µM
- IC50 (RL cells; Table 14, RL human non-Hodgkin's lymphoma B cell line, read-out: RL (IC50)): 10.3 µM
- IC50 [4]: 26.8 µM

Second part, the compound after the results:

- enzyme activity after washout (BTK [1]): recovered all of its activity
Structure (SMILES): O=C(c1ccc(Oc2ccccc2)cc1Cl)c1c[nH]c2ncnc(N[C@@H]3CC[C@@H](CO)OC3)c12 [ARQ-531]

- IC50 (BTK [2]; Table 7): 0.0001 to 0.01 µM
Structure (SMILES): Nc1ncnc2c1c(-c1ccc(Oc3ccccc3)cc1)nn2[C@@H]1CCN(S(=O)(=O)c2c(F)c(F)c(F)c(F)c2F)C1 [Compound 5-5, (R)-1-(1-((perfluorophenyl)sulfonyl)pyrrolidin-3-yl)-3-(4-phenoxyphenyl)-1H-pyrazolo[3,4-d]pyrimidin-4-amine]

- IC50 (FGFR1): 0.3 to 2 µM
- Percent residual BTK after 24 hours with test compound (5 μM) (BTK [3]): 63%
- IC50 (FGFR4): 0.3 to 2 µM
Structure (SMILES): COCCOc1ccc(Nc2ncc(F)c(NCCCNS(=O)(=O)c3c(F)c(F)c(F)c(F)c3F)n2)cc1 [Compound 5-7, 2,3,4,5,6-pentafluoro-N-(3-((5-fluoro-2-((4-(2-methoxyethoxy)phenyl)amino)pyrimidin-4-yl)amino)propyl)benzenesulfonamide]

- JAK3 (IC50, nM) (JAK3): E (E: >1000 nM to ≤ 0,000 nM)
Structure (SMILES): C[C@H]1CC[C@@H](Nc2ncnc3[nH]ccc23)CN1S(=O)(=O)c1c(F)c(F)c(F)c(F)c1F [Compound 5-8, N-((3R,6S)-6-methyl-1-((perfluorophenyl)sulfonyl)piperidin-3-yl)-7H-pyrrolo[2,3-d]pyrimidin-4-amine]

- JAK3 (IC50, nM) (JAK3): E (E: >1000 nM to ≤ 0,000 nM)
Structure (SMILES): O=S(=O)(NCCNc1ncnc2[nH]ccc12)c1c(F)c(F)c(F)c(F)c1F [Compound 5-10, N-(2-((7H-pyrrolo[2,3-d]pyrimidin-4-yl)amino)ethyl)-2,3,4,5,6-pentafluorobenzene sulfonamide]

- JAK3 (IC50, nM) (JAK3): E (E: >1000 nM to ≤ 0,000 nM)
Structure (SMILES): CN(CCNc1ncnc2[nH]ccc12)S(=O)(=O)c1c(F)c(F)c(F)c(F)c1F [Compound 5-11, N-(2-((7H-pyrrolo[2,3-d]pyrimidin-4-yl)amino)ethyl)-2,3,4,5,6-pentafluoro-N-methylbenzenesulfonamide]

- IC50 (FGFR1): 0.0001 to 0.01 µM
- Percent residual BTK after 24 hours with test compound (5 μM) (BTK [3]): 75%
- IC50 (BTK [2]; Table 8): 0.1 to 1 µM
- IC50 (FGFR4): 0.01 to 0.3 µM
Structure (SMILES): COCCOc1ccc(Nc2ncc(F)c(Nc3cccc(NS(=O)(=O)c4c(F)c(F)c(F)c(F)c4F)c3)n2)cc1 [Compound 5-15, 2,3,4,5,6-pentafluoro-N-(3-((5-fluoro-2-((4-(2-methoxyethoxy)phenyl)amino)pyrimidin-4-yl)amino)phenyl)benzenesulfonamide]
